Data reported in US9206162B2, “Triazole compounds that modulate Hsp90 activity” (Synta Pharmaceuticals Corp., priority 2006, dated 2015).

What was measured:
Hsp90 = test: Degradation of Hsp90 client proteins, Method 2: IC50 for Her2 degradation / inhibition of Hsp90 (MV-4-11 cell survival, Cell Counting Kit-8); type: cell-based, human; details: Table 9, MV-4-11 cells, 72 hours, read-out: IC50 Range
Her2 = test: Degradation of Her2 in BT-474 cells, Method 1 (Western blot); type: cell-based, human; details: 0.5 μM, overnight
Procedure: A. Cells and Cell Culture Human high-Her2 breast carcinoma BT474 (HTB-20), SK-BR-3 (HTB-30) and MCF-7 breast carcinoma (HTB-22) from American Type Culture Collection, VA, USA were grown in Dulbecco's modified Eagle's medium with 4 mM L-glutamine and antibiotics ([…] penicillin and 100 ug/ml streptomycine; GibcoBRL). To obtain exponential cell growth, cells were trypsinized, counted and seeded at a cell density of 0.5×10^6 cells/ml regularly, every 3 days. All experiments were performed on day 1 after cell passage. B. Degradation of her2 in Cells after Treatment with a Compound of the Invention
BT-474 cells are treated with 0.5 μM, 2 μM, or 5 μM of 17AAG (a positive control) or 0.5 μM, 2 μM, or 5 μM of a compound of the invention overnight in DMEM medium. After treatment, each cytoplasmic sample is prepared from 1×10^6 cells by incubation of cell lysis buffer (#9803, cell Signaling Technology) on ice for 10 minutes. The resulting supernatant used as the cytosol fractions is dissolved with sample buffer for SDS-PAGE and run on a SDS-PAGE gel, blotted onto a nitrocellulose membrane by using semi-dry transfer. Non-specific binding to nitrocellulose is blocked with 5% skim milk in TBS with 0.5% Tween at room temperature for 1 hour, then probed with anti-Her2/ErB2 mAb (rabbit IgG, #2242, Cell Signaling) and anti-Tubulin (T9026, Sigma) as housekeeping control protein. […]

Compound	IC50 (Hsp90) [nM]	degradation of Her2 (Her2)
COCCN(C)c1ccc(-n2c(O)nnc2-c2cc(C(C)C)c(O)cc2O)c[n+]1[O-] [Compound 3d]	180	
C=CCNC1=C2C[C@@H](C)C[C@H](OC)[C@H](O)[C@@H](C)/C=C(\C)[C@H](OC(N)=O)[C@@H](OC)/C=C\C=C(/C)C(=O)NC(=CC1=O)C2=O [Compound 17AAG, 17-allylamino-17-demethoxygeldanamycin]		partial degradation
